Earlier results as cited in patent EP3466870B1, “SURFACE-MODIFIED SODIUM HYPOCHLORITE PENTAHYDRATE CRYSTAL, AND METHOD FOR PRODUCING SAME” (Nippon Light Metal Company, Ltd., priority 2016, dated 2017).
Like-named read-outs stand apart in the source and are kept apart here.

Settings: in water at 25°C

SMILES: O=C(O)C(=O)O [oxalic acid]
- pKa (first value listed): 1.04
- pKa (second value listed): 3.82

SMILES: O=C(O)O [carbonic acid]
- pKa (first value listed): 6.11
- pKa (second value listed): 9.87
